Earlier results in PMC7493416 (ACS Sustainable Chemistry & Engineering, 2019).

Experiments:
[1] = general statement, no reference given

| Compound | Reproductive toxicity | Solubility in water [1] |
| --- | --- | --- |
| CN(C)C=O [DMF, dimethylformamide] | display reproductive toxicity | – |
| CN1CCCC1=O [NMP, N-methylpyrrolidone] | display reproductive toxicity | – |
| O=C1CCCCCC1 [cycloheptanone] | – | insoluble in water |
